Test results taken from the NIST ThermoML archive (doi:10.1021/je100260z).
Several values for one entry are separate records, joined by “and”; a condition that tells them apart may be missing. Equal entries are not always repeated.

Conditions: Crystal, Torsion effusion method

[F][Pb]([F])([F])[F] [lead(IV) fluoride]
Conditions	vapor or sublimation pressure [kPa]
603 K	0.000566
612 K	0.000677
622 K	0.000844
628 K	0.000844
631 K	0.00097
634 K	0.000942
635 K	0.001062
638 K	0.001116
639 K	0.001116
644 K	0.001259
645 K	0.001139
647 K	0.001209
648 K	0.001336
653 K	0.001297
654 K	0.001492
657 K	0.0016
658 K	0.001448
663 K	0.001584
664 K	0.001751
666 K	0.00184
668 K	0.001751
669 K	0.001896
670 K	0.001974
673 K	0.001878
675 K	0.002096
676 K	0.001974
682 K	0.00234
684 K	0.002203

[F][Pb][F] [lead(II) fluoride]
Conditions	vapor or sublimation pressure
793 K	0.000361 kPa
798 K	0.000411 kPa
803 K	0.000411 kPa
808 K	0.000454 kPa
810 K	0.000454 kPa
811 K	0.000487 kPa
816 K	0.000522 kPa
818 K	0.000554 kPa
820 K	0.000554 kPa
824 K	0.000613 kPa
825 K	0.000613 kPa
827 K	0.000613 kPa
830 K	0.000638 kPa
833 K	0.000664 kPa
835 K	0.000705 kPa
837 K	0.000748 kPa
840 K	0.000771 kPa
841 K	0.000748 kPa
845 K	0.000861 kPa and 0.000827 kPa
846 K	0.000827 kPa
852 K	0.000951 kPa
854 K	0.00098 kPa
856 K	0.00101 kPa
858 K	0.00098 kPa
859 K	0.00098 kPa
863 K	0.001116 kPa
867 K	0.001185 kPa and 0.001116 kPa
868 K	0.001234 kPa
873 K	0.001323 kPa and 0.001284 kPa
875 K	0.001323 kPa
876 K	0.001284 kPa
878 K	0.001391 kPa
882 K	0.001507 kPa
883 K	0.001477 kPa
884 K	0.001419 kPa
886 K	0.001507 kPa
890 K	0.001632 kPa
891 K	0.001682 kPa
895 K	0.001716 kPa
899 K	0.00184 kPa
900 K	0.001896 kPa
903 K	0.001916 kPa
904 K	0.001916 kPa
905 K	0.001896 kPa
910 K	0.002138 kPa and 0.002117 kPa
912 K	0.002075 kPa
913 K	0.002096 kPa
914 K	0.002203 kPa
919 K	0.002387 kPa
921 K	0.002411 kPa
923 K	0.002387 kPa
928 K	0.002638 kPa
931 K	0.002664 kPa
933 K	0.002746 kPa
934 K	0.002801 kPa
948 K	0.003456 kPa
951 K	0.003669 kPa
